Columns and labels:
whole adult planarians = settings: 0.22-22 mg/L, 12 days, control points at 7 and 12 days; for Concentration above which behavioral problems potentially linked to cognitive problems in the planarian are observed: adhesion, speed of movement, rest, phototaxis, scrunching
[1] = hazard statements in words; cited from earlier work

For CC(C)CC(C)Nc1ccc(Nc2ccccc2)cc1 (centres unmarked) [Example 22, N-(1,3-Dimethylbutyl)-N′-phenyl-p-phenylenediamine], which “Concentration above which significant mortality of planarian is observed according to Zhang et al., Neurotoxicology and Teratology, 2019” value (whole adult planarians) is on record?
Its value is 4.8 mg/L.

And the “Concentration above which behavioral problems potentially linked to cognitive problems in the planarian are observed” value (whole adult planarians)?
Its value is 1.5 mg/L.

And the “Toxicity (confirmed toxicity, ECHA substance information)” value (“Toxicity” for short) [1]?
The value was “Harms fertility or has a negative impact”.

For c1ccc(Nc2ccc(Nc3ccccc3)cc2)cc1 [DPPD, N,N′-diphenyl-p-phenylenediamine], which “Toxicity” value [1] is on record?
The value was “Is harmful to aquatic life with long-term”.

With c1ccc(Nc2cccc3ccccc23)cc1 [Example 19, N-phenylnaphthalene-1-amine] as the compound, how does the “Concentration above which significant mortality of planarian is observed according to Zhang et al., Neurotoxicology and Teratology, 2019” value (whole adult planarians) read?
The value was 6.9 mg/L.

And the “Concentration above which behavioral problems potentially linked to cognitive problems in the planarian are observed” value (whole adult planarians)?
The value was 2.2 to 3.9 mg/L.

With CC(C)(C)c1cc(Cc2cc(C(C)(C)C)c(O)c(C(C)(C)C)c2)cc(C(C)(C)C)c1O [Example 3, 4,4′-Methylene-bis-(2,6-di-tert-butylphenol)] as the compound, how does the “Toxicity” value [1] read?
Its value is “Under evaluation as an endocrine”.

With c1ccc(Nc2ccc(NC3CCCCC3)cc2)cc1 [CPPD, N-cyclohexyl-N′-phenyl-p-phenylenediamine] as the compound, how does the “Toxicity” value [1] read?
The value was “Is toxic to aquatic life with long-term”.
